Our source for the IC50 and EC50 values is patent publication EP4782453A1 (Beyang Therapeutics Co., Ltd., priority 2023, dated 2025).

What all share (format): cell-based
In assay [1] the test system is MOLM-13 (carrying MLL-AF9). The assay can be described thus: Inhibition of proliferation of human tumor cells (Alamar Blue, 7 days), MOLM-13. Particulars: Homo sapiens, 168 h, MOLM-13 cells (carrying MLL-AF9), method calls the value GI50. The method, boiled down:
(§1)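 Cells seeded at 4,000/well (MV-4-11, MOLM-13) or 3,000/well (KG-1a), treated in duplicate with serial compound dilutions for 7 days at 37°C, 5% CO2. Alamar Blue fluorescence read on Day 7, normalised to 0.1% DMSO Day-7 (high) and Day-0 (low) controls; GI50 derived.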

Assay [2] concerns KG-1a (wild-type MLL). The assay can be described thus: Inhibition of proliferation of human tumor cells (Alamar Blue, 7 days), KG-1a control cell line. Conditions: 168 h, KG-1a cells (wild-type MLL, control cell line), method calls the value GI50. The method, boiled down:
as §1
(In general: Resazurin is reduced to fluorescent resorufin, in cell work by metabolically active cells.)

In assay [3] the test system is MEIS1 gene expression. Description: Inhibition of MEIS1 gene expression in human tumor cells (qRT-PCR), MV-4-11. Particulars: MV4-11, MV-4-11 (carrying MLL-AF4), 48 hours of incubation, relative MEIS1 gene expression vs GAPDH, read-out: MV-4-11 MEISI EC50. The gist of the method:
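MV-4-11 (MLL-AF4; IMDM, 10% FBS), MOLM-13 (MLL-AF9) and OCI-AML3 (NPM1c) (RPMI-1640, 20% FBS) seeded at 100,000 cells/well and treated 48 h with serially diluted compound. MEIS1 mRNA measured by one-step probe qRT-PCR from total RNA, triplicates, GAPDH primer/probe included; EC50 for inhibition of relative MEIS1 expression.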

Assay [4] concerns MEIS1 gene expression. The assay can be described thus: Inhibition of MEIS1 gene expression in human tumor cells (qRT-PCR), OCI-AML3. Particulars: OCI-AML-3, OCI-AML3 (carrying NPM1c), 48 hours of incubation, relative MEIS1 gene expression vs GAPDH. The source says:
(§2) Experimental Example 3: Evaluation of Inhibitory Activity of Compounds Against MEISI Gene Expression in Human Tumor Cells
(§3) The effect of test samples on MEIS1 gene expression in vitro cultured human leukemia cells MV-4-11 (carrying MLL-AF4), MOLM-13 (carrying MLL-AF9), and OCI-AML3 (carrying NPM1c) was studied.
(§4) • Human acute lymphoblastic leukemia cells MV-4-11, purchased from American Type Culture Collection, Catalog Number: CRL-9591; • Human acute myeloid leukemia cells MOLM-13, purchased from COBIOER BIOSCIENCES CO., LTD, Catalog Number: CBP60678; • Human acute myeloid leukemia cells OCI-AML3, purchased from COBIOER BIOSCIENCES CO., LTD, Catalog Number: CBP60817; • MEIS1 Primer/Probe, purchased from IDT, Catalog Number: 40831613; and • GAPDH Primer/Probe, purchased from IDT, Catalog Number: 22214836.
(§5) MV-4-11 cells were cultured in an IMDM medium containing 10% fetal bovine serum, or MOLM-13 and OCI-AML3 cells were cultured in an RPMI-1640 medium containing 20% fetal bovine serum, each supplemented with 100 U·mL^-1 penicillin and 100 µg·mL^-1 streptomycin. These cells were cultured at 37°C with 5% CO2. The suspensions of individual cell lines were prepared in their respective media and seeded into 48-well plates at a density of 100,000 cells/well. On the day of the experiment, a compound stock solution was diluted in a 6-fold gradient using DMSO. Each gradient-diluted stock solution was then further diluted 250-fold with a complete medium to prepare a series of working solutions at different concentrations. Next, 250 µL of working solution (containing the complete medium with a 2-fold serial concentration of the test compound or a positive control compound, or containing a control complete medium) was added to each well. After 48 hours of incubation, cells from the 48-well plate were collected into 1 mL centrifuge tubes, centrifuged at 1000 rpm for 5 minutes, and the complete medium was removed. Cells were washed twice with 1 mL PBS and centrifuged to remove PBS. Total RNA was extracted using the RNeasy Mini Kit (250) (QIAGEN, 74106). The threshold cycle (Ct) value for gene expression was determined using the HiScript II U+ One Step qRT-PCR Probe Kit (Vazyme) (Vazyme, Q223-01), with 3 replicates per sample. The prepared reaction mixture was placed in an ABI 7500 real-time PCR instrument, and the reaction proceeded following the procedures below. [formula]
(§6) Next, for the relative MEIS1 gene expression, the concentration (EC50) that inhibits 50% of relative MEIS1 gene expression was calculated using GraphPad Prism 8 software.
In general terms: Real-time PCR tracks product formation cycle by cycle.

The test system of assay [5] is MV-4-11 (carrying MLL-AF4). The assay can be described thus: Inhibition of proliferation of human tumor cells (Alamar Blue, 7 days), MV-4-11. Particulars: Homo sapiens, MV4-11, 168 h, MV-4-11 cells (carrying MLL-AF4), method calls the value GI50. The method, boiled down: as §1
Assay [6] relates to MEIS1 gene expression. Description: Inhibition of MEIS1 gene expression in human tumor cells (qRT-PCR), MOLM-13. Particulars: MOLM-13 (carrying MLL-AF9), 48 hours of incubation, relative MEIS1 gene expression vs GAPDH.
Text: as §2, §3, §4, §5, §6

Usually IC50 stands for the concentration that inhibits the measured activity by half. A word on the EC50: it is the concentration that produces a half-maximal response. For `COCCN(C)CCC[C@H](C(C)C)N1CC(c2cc(-c3ccc(F)cc3C(=O)N3CCOC[C@H]3C)c3c(F)nc(C)n3c2)C1` [Example 200-1], the figures for the IC50 in assay [1], in assay [2] and in assay [5] were 10.2 nM, 20000 nM and 3.2 nM, respectively. For the same compound, the EC50 came out at 12 nM in assay [3], 13 nM in assay [4] and 1 nM in assay [6].
`COC1CCN(CCCC(C(C)C)N2CC(c3cc(-c4ccc(F)cc4C(=O)N4CCOCC4C)c4c(F)nc(C)n4c3)C2)C1` (stereo not shown) [Example 201-1]: the IC50 came out at 5.1 nM in assay [1], 20000 nM in assay [2] and 2.4 nM in assay [5]. For the same compound, the EC50 in assay [3] turned out to be 3.4 nM; in assay [4], 2.4 nM; in assay [6], 1 nM.
In the case of `COC1CCN(CCC[C@H](C(C)C)N2CC(c3cc(-c4ccc(F)cc4C(=O)N4CCOC[C@H]4C)c4c(F)nc(C)n4c3)C2)CC1` [Example 204, (3R)-4-[5-fluoro-2-(1-fluoro-6-{1-[(3R)-6-(4-methoxypiperidin-1-yl)-2-methylhexan-3-yl]azacyclobutan-3-yl}-3-methylimidazo[1,5-a]pyridin-8-yl)benzoyl]-3-methylmorpholine], the values for the IC50 in assay [1], in assay [2] and in assay [5] were 11.2 nM, 18000 nM and 2.8 nM, respectively. For the same compound, the values for the EC50 in assay [3], in assay [4] and in assay [6] were 15 nM, 13 nM and 4.3 nM, respectively.
Regarding `CC[C@@H](C1CCN(C(C)=O)CC1)N1CC(c2cc(-c3ccc(F)cc3C(=O)N3CCOC[C@H]3C)c3c(F)nc(C)n3c2)C1` [Example 280-1, 1-{4-[(1S)-1-[3-(1-fluoro-8-{4-fluoro-2-[(3R)-3-methylmorpholin-4-carbonyl]phenyl}-3-methylimidazo[1,5-a]pyridin-6-yl)azacyclobutan-1-yl]propyl]piperidin-1-yl}ethan-1-one], the IC50 came to 27 nM in assay [1] and 6.9 nM in assay [5]. The EC50 stood at 61 nM in assay [3], 34 nM in assay [4] and 23 nM in assay [6].
For `CCN(C(=O)c1cc(F)ccc1-c1cc(C2CN([C@@H](C)C3CCN(C(=O)CO)CC3)C2)cn2c(C)nc(F)c12)C(C)C` [Example 284-2], the figures for the IC50 in assay [1] and in assay [5] were 6.8 nM and 1.5 nM, respectively. Moreover, the figures for the EC50 in assay [4] and in assay [6] were 5.8 nM and 5.9 nM, respectively.
With `Cc1nc(F)c2c(-c3ccc(F)cc3C(=O)N3CCOC[C@H]3C)cc(C3CN([C@H](CO[C@@H]4CCCN(C)C4)C(C)C)C3)cn12` [Example 297-1, (3R)-4-[5-fluoro-2-(1-fluoro-3-methyl-6-{1-[(2S)-3-methyl-1-{[(3R)-1-methylpiperidin-3-yl]oxy}butan-2-yl]azacyclobutan-3-yl}imidazo[1,5-a]pyridin-8yl)benzoyl]-3-methylmorpholine], the IC50 was determined as 36 nM in assay [1] and 12 nM in assay [5]. For the same compound, the EC50 in assay [3] amounted to 32 nM; in assay [4] it was 34 nM; in assay [6] it was 12 nM.
On to `CCN(C(=O)c1cc(F)ccc1-c1cc(C2CN([C@H](CCCN3CCN(C)CC3)C(C)C)C2)cn2c(C)ncc12)C(C)C` [Example 310-2, N-ethyl-5-fluoro-2-(3-methyl-6-{1-[(3R)-2-methyl-6-(4-methylpiperazin-1-yl)hexan-3-yl]azacyclobutan-3-yl}imidazo[1,5-a]pyridin-8-yl)-N-(isopropyl)benzamide], for which the IC50 was determined as 6.2 nM in assay [1] and 0.97 nM in assay [5]. Also, the EC50 in assay [3] was 5 nM; in assay [4], 12 nM; in assay [6] it was 6.5 nM.
On the same counts, the results for `CCN(C(=O)c1cc(F)ccc1-c1cc(C2CN([C@H](CCCN3CCN(C(C)=O)CC3)C(C)C)C2)cn2c(C)ncc12)C(C)C` [Example 311-2, 2-(6-{1-[(3R)-6-(4-acetylpiperazin-1-yl)-2-methylhexan-3-yl]azacyclobutan-3-yl}-3-methylimidazo[1,5-a]pyridin-8-yl)-N-ethyl-5-fluoro-N-(isopropyl)benzamide] are 26 nM, 4.7 nM, 19 nM, 23 nM and 11 nM.
For `CCN(C(=O)c1cc(F)ccc1-c1cc(C2CN([C@H](CCCN3CCN(C)CC3)C(C)C)C2)cn2c(C)nc(F)c12)C(C)C` [Example 312-2], the values for the IC50 in assay [1] and in assay [5] were 5.3 nM and 0.91 nM, respectively. Also, the EC50 in assay [3] was 5.7 nM; in assay [4] it was 3.9 nM; in assay [6], 2.5 nM.
As for `Cc1nc(F)c2c(-c3ccc(F)cc3C(=O)N3CCOC[C@H]3C)cc(C3CN([C@H](CCCN4CCC(F)CC4)C(C)C)C3)cn12` [Example 314], the half-maximal inhibitory concentration (IC50) in assay [1] was determined as 7.3 nM; in assay [5], 1.1 nM. Also, the EC50 in assay [3] worked out at 13 nM; in assay [4], 8.9 nM; in assay [6], 3.4 nM.
Regarding `Cc1nc(F)c2c(-c3ccc(F)cc3C(=O)N3CCOC[C@H]3C)cc(C3CN([C@H](CO[C@H]4CCCN(C)C4)C(C)C)C3)cn12` [Example 321-2, (3R)-4-[5-fluoro-2-(1-fluoro-3-methyl-6-{1-[(2S)-3-methyl-1-{[(3S)-1-methylpiperidin-3-yl]oxy}butan-2-yl]azacyclobutan-3-yl}imidazo[1,5-a]pyridin-8yl)benzoyl]-3-methylmorpholine], the IC50 was determined as 17 nM in assay [1] and 2.6 nM in assay [5]. Besides, the EC50 in assay [4] was 32 nM; in assay [6], 10 nM.
Regarding `Cc1ncc2c(-c3ccc(F)cc3C(=O)N3CCOC[C@H]3C)cc(C3CN([C@H](CCCN4CCN(C)CC4)C(C)C)C3)cn12` [Example 323-2, (3R)-4-[5-fluoro-2-(3-methyl-6-{1-[(3R)-2-methyl-6-(4-methylpiperazin-1-yl)hexan-3-yl]azacyclobutan-3-yl}imidazo[1,5-a]pyridin-8-yl)benzoyl]-3-methylmorpholine], the IC50 in assay [1] came to 15 nM; in assay [5], 2.4 nM. Moreover, the EC50 in assay [3] came out at 8.6 nM; in assay [4], 17 nM; in assay [6] it was 8.4 nM.
Regarding `CCN1CCN(CCC[C@H](C(C)C)N2CC(c3cc(-c4ccc(F)cc4C(=O)N4CCOC[C@H]4C)c4cnc(C)n4c3)C2)CC1` [Example 324-2], the IC50 worked out at 9.2 nM in assay [1] and 1.3 nM in assay [5]. The results for the EC50 in assay [3], in assay [4] and in assay [6] were 7.3 nM, 9.5 nM and 1.3 nM, respectively.
In the case of `CCN(C(=O)c1cc(F)ccc1-c1cc(C2CN([C@H](CCCN3C4COCC3C4)C(C)C)C2)cn2c(C)ncc12)C(C)C` [Example 423], the IC50 was 2.7 nM in assay [1] and 1.2 nM in assay [5]. Also, the EC50 in assay [3] was 1.3 nM; in assay [4] it was 6.1 nM; in assay [6], 2.3 nM.
Turning to `CCN(C(=O)c1cc(F)ccc1-c1cc(C2CN([C@H](CN3CCN(CCO)CC3)C(C)C)C2)cn2c(C)ncc12)C(C)C` [Example 431, N-ethyl-5-fluoro-2-(6-{1-[(2S)-1-[4-(2-hydroxylethyl)piperazin-1-yl]-3-methylbutan-2-yl]azacyclobutan-3-yl}-3methylimidazo[1,5-a]pyridin-8-yl)-N-(isopropyl)benzamide], the figures for the IC50 in assay [1] and in assay [5] were 15 nM and 4.7 nM, respectively. The EC50 in assay [3] is 5.5 nM; in assay [4], 33 nM; in assay [6] it was 4.6 nM.
